Earlier results, collected in patent US20080241117A1, “Oral Care Compositions Containing a Mixed Tocopherol Component” (priority 2007, published 2008).
Where two headings read alike, the source gives them in different places.

Key:
[1] = applied topically in toothpaste
gingivitis [2] = settings: applied topically in toothpaste; primates
gingivitis [3] = settings: applied topically in toothpaste; humans
[4] = system: prostaglandin E2 in gingival crevicular fluid; settings: applied topically in rinse form

Cc1c(C)c2c(c(C)c1O)CC[C@@](C)(CCC[C@H](C)CCC[C@H](C)CCCC(C)C)O2 [alpha tocopherol]
penetration of gum tissue [1]: penetrates gum tissue
effect on gingivitis (gingivitis [2]): fails to provide an effect on gingivitis
effect on gingivitis (gingivitis [3]): fails to provide an effect on gingivitis

tocopherol [vitamin E]
level of prostaglandin E2 in gingival crevicular fluid [4]: reduced level of prostaglandin E2
